Data as given in publication PMC10520873, “Biochemical investigation of the tryptophan biosynthetic enzyme anthranilate phosphoribosyltransferase in plants” (The Journal of Biological Chemistry, 2023).

Columns and labels:
Type in all cases: biochemical
PpPAT1 [1] = target: T1, PpPAT1 (Physcomitrium patens, UniProt A9T6I7); assay: EnzChek pyrophosphate assay (PNP-coupled, […] nm)
T1 construct: gene LOC112294424; codon-optimized gene in pET28a, His-tagged, E. coli BL21 (DE3), Ni-NTA

SmPAT1 [2] = target: T2, SmPAT1 (Selaginella moellendorffii, UniProt Z9CFY1Y489); assay: EnzChek pyrophosphate assay (PNP-coupled, […] nm)
T2 construct: gene PAT1; codon-optimized gene in pET28a, His-tagged, E. coli BL21 (DE3), Ni-NTA

PvPAT1 [3] = target: T3, PvPAT1 (Pistacia vera, UniProt Z9K6G7Q8L5); assay: coupled pyrophosphate release to NADH oxidation, […] nm; Michaelis-Menten fit; details: 1 mM PR-PPi, 45 mM imidazole HCl pH 7.4, 30 °C
T3 construct: codon-optimized gene in pET28a, His-tagged, E. coli BL21 (DE3), Ni-NTA
T3 sequence (Z9K6G7Q8L5 1-311): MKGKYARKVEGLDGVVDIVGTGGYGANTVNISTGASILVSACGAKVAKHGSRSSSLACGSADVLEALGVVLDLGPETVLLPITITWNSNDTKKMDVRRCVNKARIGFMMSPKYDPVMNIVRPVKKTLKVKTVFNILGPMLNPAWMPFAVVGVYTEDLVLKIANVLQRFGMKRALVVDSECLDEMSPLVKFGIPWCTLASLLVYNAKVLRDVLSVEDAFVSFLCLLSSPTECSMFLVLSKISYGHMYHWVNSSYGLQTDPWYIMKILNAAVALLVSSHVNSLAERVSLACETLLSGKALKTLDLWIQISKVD

JrPAT1 = target: T4, JrPAT1 (Juglans regia, UniProt A0A6P9ES87); assay: coupled pyrophosphate release to NADH oxidation, […] nm; substrate inhibition fit; details: 1 mM PR-PPi, 45 mM imidazole HCl pH 7.4, 30 °C
T4 construct: gene LOC109021987; codon-optimized gene in pET28a, His-tagged, E. coli BL21 (DE3), Ni-NTA

PpPAT1 [4] = target: T1, PpPAT1; assay: as above; details: 1 mM PR-PPi, 45 mM imidazole HCl pH 7.4, 30 °C
SmPAT1 [5] = target: T2, SmPAT1; assay: as above; details: 1 mM PR-PPi, 45 mM imidazole HCl pH 7.4, 30 °C
PvPAT1 [6] = target: T3, PvPAT1; assay: as above; details: 1 mM PR-PPi, 45 mM imidazole HCl pH 7.4, 30 °C
CsPAT1 = target: T5, CsPAT1 (Citrus sinensis, UniProt A0ACB8LSF1); assay: as above; details: 1 mM PR-PPi, 45 mM imidazole HCl pH 7.4, 30 °C
T5 construct: gene KPL71_006645; codon-optimized gene in pET28a, His-tagged, E. coli BL21 (DE3), Ni-NTA

AtPAT1 = target: T6, AtPAT1 (Arabidopsis thaliana, UniProt Q02166); assay: as above; details: 1 mM PR-PPi, 45 mM imidazole HCl pH 7.4, 30 °C
T6 construct: gene PAT1; codon-optimized gene in pET28a, His-tagged, E. coli BL21 (DE3), Ni-NTA

Structure (SMILES): N[C@@H](Cc1ccc(O)cc1)C(=O)O [Tyr]
- IC50 (PpPAT1 [1]): 1180 µM

Structure (SMILES): N[C@@H](Cc1ccccc1)C(=O)O [Phe]
- IC50 (SmPAT1 [2]): 1980 µM

Structure (SMILES): Nc1c(O)cccc1C(=O)O [3-hydroxyanthranilate]
- Km (PvPAT1 [3]; 3-HAA 0-0.5 mM): 50 ± 5.3 µM

Structure (SMILES): Nc1ccccc1C(=O)O [anthranilate]
- Ki (JrPAT1): > 5000 µM
- Ki (PpPAT1 [4]): > 5000 µM
- Ki (SmPAT1 [5]): 3600 ± 800 µM
- Ki (PvPAT1 [6]): 1800 ± 400 µM
- Ki (CsPAT1): 4100 ± 600 µM
- Km (PvPAT1 [3]; anthranilate 0-0.75 mM): 32.1 ± 4.7 µM
- Ki (AtPAT1): 4300 ± 400 µM
